A value given as a limit tells only on which side of the number the result lay.

Results on 19 molecules are retold here after patent US10696637B2, “Nitrogen-containing heterocyclic compound” (FUJIFILM Corporation, priority 2015, dated 2020).

The subject of the experiment is CXCL10 production. The experiment in a line: CXCL10 production inhibition test. The experiment is classed as cell-based. The following applies: Endothelial cell; test compound 0.1 μmol/L; human umbilical vein-derived endothelial cells; TNFα 10 ng/mL; supernatant 72 hours after stimulation; ELISA; read-out: Rate of inhibition of CXCL10 production. How it is done: (CXCL10 Production Inhibition Test)
0.5×10^4 or 1×10^4 human umbilical vein-derived endothelial cells were suspended in 100 μL of an EGM-2 BulletKit medium (without GA) or a Medium-200 medium supplemented with an EGM-2 SingleQuots kit (without GA), inoculated to a 96-well plate and cultured overnight. 100 μL of a solution of each test compound diluted with the same medium as that used in the inoculation was added to the cultured cells (final concentration of the test compound: 0.1 μmol/L). 1 hour thereafter, TNFα was added thereto at a final concentration of 10 ng/mL. 72 hours after the stimulation, the supernatant was recovered, and the amount of CXCL10 produced in the culture supernatant was determined using an ELISA kit (Peprotech, 900-109).
The rate of inhibition was calculated according to the following expression: Rate of inhibition (%)=100−(Amount of CXCL10 produced in the presence of the test compound/Amount of CXCL10 produced in the absence of the test compound)×100
Turning to `CCn1c(=O)cc(N2CCOCC2)c2cc(-n3c(-c4ccc(C(F)(F)F)cc4)c[nH]c3=O)ccc21` [Example 272, 1-ethyl-6-(2-oxo-5-(4-(trifluoromethyl)phenyl)-2,3-dihydro-1H-imidazol-1-yl)-4-(morpholin-4-yl)quinolin-2(1H)-one], the inhibition at 0.1 µM was at least 50%. The result for `CCn1c(=O)cc(N2CCOCC2)c2cc(-n3c(-c4ccc(C)cc4)cn(C)c3=O)ccc21` [Example 273, 1-ethyl-6-(3-methyl-5-(4-methylphenyl)-2-oxo-2,3-dihydro-1H-imidazol-1-yl)-4-(morpholin-4-yl)quinolin-2(1H)-one] reads at least 50%. The result for `CCn1c(=O)cc(N2CCOCC2)c2cc(-n3c(-c4ccc(C)cc4)c[nH]c3=O)ccc21` [Example 274] reads at least 50%. The figure for `CCn1c(=O)cc(C2CC2)c2cc(-n3c(-c4ccc(C)cc4)cn(C)c3=O)ccc21` [Example 275, 4-cyclopropyl-1-ethyl-6-(3-methyl-5-(4-methylphenyl)-2-oxo-2,3-dihydro-1H-imidazol-1-yl)quinolin-2(1H)-one] is at least 50%; for `CCn1c(=O)cc(C2CC2)c2cc(-n3c(-c4ccc(C)cc4)c[nH]c3=O)ccc21` [Example 276, 4-cyclopropyl-1-ethyl-6-(5-(4-methylphenyl)-2-oxo-2,3-dihydro-1H-imidazol-1-yl)quinolin-2(1H)-one] it is at least 50%; for `CCn1c(=O)cc(C2CC2)c2cc(-c3cccnc3-c3ccccc3)ccc21` [Example 278, 4-cyclopropyl-1-ethyl-6-(2-phenylpyridin-3-yl)quinolin-2(1H)-one] it is at least 50%. Turning to `CCn1c(=O)cc(N2CCOCC2)c2cc(-c3cccnc3-c3ccccc3)ccc21` [Example 279, 1-ethyl-4-(morpholin-4-yl)-6-(2-phenylpyridin-3-yl)quinolin-2(1H)-one], the inhibition at 0.1 µM is at least 50%. The figure for `CCn1c(=O)cc(C2CC2)c2cc(N3C(=O)C(C)C(=O)N3c3ccccc3)ccc21` (stereo not shown) [Example 280, 1-(4-cyclopropyl-1-ethyl-2-oxo-1,2-dihydroquinolin-6-yl)-4-methyl-2-phenylpyrazolidine-3,5-dione] is at least 50%. Turning to `CCC1C(=O)N(c2ccccc2)N(c2ccc3c(c2)c(C2CC2)cc(=O)n3CC)C1=O` (stereo not shown) [Example 281, 1-(4-cyclopropyl-1-ethyl-2-oxo-1,2-dihydroquinolin-6-yl)-4-ethyl-2-phenylmazolidine-3,5-dione], the inhibition at 0.1 µM is at least 50%.

Regarding `CCn1c(=O)cc(C2CC2)c2cc(-n3c(=O)cc(C)n3-c3ccccc3)ccc21` [Example 282a, 4-cyclopropyl-1-ethyl-6-(3-methyl-5-oxo-2-phenyl-2,5-dihydro-1H-pyrazol-1-yl)quinolin-2(1H)-one], the inhibition at 0.1 µM is at least 50%. Consider `CCn1c(=O)cc(C2CC2)c2cc(-n3c(C)cc(=O)n3-c3ccccc3)ccc21` [Example 282b, 4-cyclopropyl-1-ethyl-6-(5-methyl-3-oxo-2-phenyl-2,3-dihydro-1H-pyrazol-1-yl)quinolin-2(1H)-one], for which the inhibition at 0.1 µM is at least 50%. The result for `CCn1c(=O)cc(C2CC2)c2cc(-c3nc(C)[nH]c3-c3ccccc3)ccc21` [Example 283, 4-cyclopropyl-1-ethyl-6-(2-methyl-5-phenyl-1H-imidazol-4-yl)quinolin-2(1H)-one] reads at least 50%; that for `CCn1c(=O)cc(C2CC2)c2cc(-c3nccnc3-c3ccccc3)ccc21` [Example 284, 4-cyclopropyl-1-ethyl-6-(3-phenylpyradin-2-yl)quinolin-2(1H)-one], at least 50%; that for `CCn1c(=O)cc(C2CCC(O)CC2)c2cc(C(=O)N(C)c3ccc(Cl)cc3)ccc21` (stereo not shown) [Example 286, N-(4-chlorophenyl)-1-ethyl-4-(4-hydroxycyclohexyl)-N-methyl-2-oxo-1,2-dihydroquinoline-6-carboxamide], at least 50%. For the molecule `CCn1c(=O)cc(C2CCN(C(C)=O)CC2)c2cc(C(=O)N(C)c3ccc(C)cc3)ccc21` [Example 290, 4-(1-acetylpiperidin-4-yl)-1-ethyl-N-methyl-N-(4-methylphenyl)-2-oxo-1,2-dihydroquinoline-6-carboxamide], the inhibition at 0.1 µM is at least 50%. The figure for `CCn1c(=O)cc(C)c2cc(-c3cccnc3-c3ccccc3)ccc21` [Example 291, 1-ethyl-4-methyl-6-(2-phenylpyridin-3-yl)quinolin-2(1H)-one] is at least 50%; for `CCn1c(=O)cc(C2CCN(C)CC2)c2cc(C(=O)N(C)c3ccc(C)c(F)c3)ccc21` [Example 292, 1-ethyl-N-(3-fluoro-4-methylphenyl)-N-methyl-4-(1-methylpiperidin-4-yl)-2-oxo-1,2-dihydroquinoline-6-carboxamide] it is at least 50%; for `CCn1c(=O)cc(C2CCN(C)CC2)c2cc(C(=O)N(C)c3ccc(C)c(Cl)c3)ccc21` [Example 293, N-(3-chloro-4-methylphenyl)-1-ethyl-N-methyl-4-(1-methylpiperidin-4-yl)-2-oxo-1,2-dihydroquinoline-6-carboxamide] it is at least 50%.

Turning to `CCn1c(=O)cc(C2CCN(C)CC2)c2cc(C(=O)N(C)c3ccc(C)c(C)c3)ccc21` [Example 294, N-(3,4-dimethylphenyl)-1-ethyl-N-methyl-4-(1-methylpiperidin-4-yl)-2-oxo-1,2-dihydroquinoline-6-carboxamide], the inhibition at 0.1 µM was at least 50%.

Usually inhibition stands for the drop in the measured response relative to a control, in per cent.
